The record followed here is patent publication US10766888B1, “HMOX1 inducers” (Mitobridge Inc., priority 2019, dated 2020).

Converted amounts (≈) assume the structure as drawn. Structures can show the parent of a compound that is named as a salt.

For the first data set, the system named is Human Heme Oxygenase-1 (HMOX-1). In words: ELISA assay to measure human heme oxygenase-1 (HMOX-1) in HepG2 lysate. In kind it is cell-based. The following applies: human HMOX1 protein level in HepG2 lysate; * = average of 2 or more EC50 determinations; NA = Not Active; read-out: EC50. The method, then:
Example 143. ELISA Assay to Measure Human Heme Oxygenase-1 (HMOX-1) in HepG2 lysate
Reagents and Technical Notes:
ELISA capture antibody, standard HO-1, detection antibody and streptavidin HRP were supplied in the DuoSet IC Human total HO-1 ELISA from R&D systems (DYC3776-2). The substrate cocktail was KPL LumiGLO reserve Chemiluminescent Substrate (54-71-00). PBS was Corning Cellgro Cell Culture (21-040-CV). 10×PBS+0.05% tween20 (PBST) was from KPL.
All incubations of the plate were at room temperature (20° C.) in a closed drawer.
The ELISA plate was processed manually. All loadings were with a multichannel pipet. Plates were emptied by shaking into the sink and tapping onto paper towels to remove any remaining reagent. Plate washing was accomplished by loading all wells with PBS+0.05% tween20 (PBST) using a squirt bottle, shaking the PBST out and tapping the plate onto paper towels.
Preparation of the ELISA Plate:
• 1. anti-HO-1 capture antibody was 1440 μg/ml after reconstitution in PBS. This antibody was diluted to 8 μg/ml in PBS and 50 μl per well was added to a 384 well greiner “lumitrac 200” plate. Incubated overnight. • 2. The plate was emptied and 100 μl PBS+1% BSA added to all wells. Incubated 90 minutes at room temperature. Preparation of HepG2 Lysate: • 1. Cells were cultured in a 96-well tissue culture plate washed with PBS and then the plate frozen at −70° C. overnight. Plates were allowed to warm to ice temperature in an ice bucket. 20 μl of PBS, 0.5% Triton X100, 1 mM EDTA with 1×HALT™ protease inhibitors was added to each well and the plates incubated on ice for 1 hour. • 2. The lysates were frozen at −20° C. overnight. Measurement of HMOX1 (“HO-1”) • 1. In a polypropylene 384 well plate, human HO-1 (after reconstitution in PBS+0.5% Triton+1 mM EDTA) was serially diluted from 20 ng/ml 2-fold in PBS+0.5% triton-X100, 1 mM EDTA to make a 12-point standard curve including a zero point. • 2. In a polypropylene 96 well plate, HepG2 lysate was diluted 1 to 20 in Diluent #4 from DUOSET kit in which the assay standard is also diluted. • 3. The PBS+1% BSA was emptied from the ELISA plate and 30 μl of all samples and standards were added (duplicates recommended). The plate was incubated 90 minutes. • 4. Emptied plate and washed 4 times with PBST. • 5. Diluted HO-1 detection antibody to 200 ng/ml in PBS+1% BSA and added 30 μl to all wells. Incubated 90 minutes. • 6. Emptied plate and washed 4 times with PBST. • 7. Added 30 μl streptavidin HRP at 1/200 in PBS+1% BSA (stock streptavidin concentration not specified) to all wells. Incubated 30 minutes. • 8. Emptied plate and washed 4 times with PBST. • 9. Diluted Lumiglo reserve reagent two parts buffer to one part lumiglo substrate. Added 30 μl to all wells. Incubated 5 minutes. • 10. Measured chemiluminescence on spectramax M5 using 150 ms integration.
Table 1 below lists EC50 and fold changes of human HMOX1 protein levels relative to DMSO control upon treatment with representative compounds.
(An ELISA detects its analyte on a solid surface through an enzyme-linked reagent.)
For orientation: EC50 means the concentration giving half of the maximal effect. Regarding `COCCNC(=O)c1ccc2c(c1)nc(Nc1nc3cc(Cl)ccc3[nH]1)n2C` [Example 83, 2-((5-chloro-1H-benzo[d]imidazol-2-yl)amino)-N-(2-methoxyethyl)-1-methyl-1H-benzo[d]imidazole-5-carboxamide], the half-maximal effective concentration (EC50) worked out at 1.8 µM.
Same read-out and setting: for `CCn1c(Nc2nc3ccc(OC(F)(F)F)cc3o2)nc2cc(C(=O)O)ccc21` [Example 84, 1-ethyl-2-((6-(trifluoromethoxy)benzo[d]oxazol-2-yl)amino)-1H-benzo[d]imidazole-5-carboxylic acid] the value was 5.4 µM; for `CCn1c(Nc2nc3ccc(OC(F)(F)F)cc3o2)nc2cc(C(=O)NCCOC)ccc21` [Example 85, 1-ethyl-N-(2-methoxyethyl)-2-((6-(trifluoromethoxy)benzo[d]oxazol-2-yl)amino)-1H-benzo[d]imidazole-5-carboxamide], 1.3 µM; for `O=C(O)c1ccc2c(c1)nc(Nc1nc3ccc(OC(F)(F)F)cc3o1)n2CC1CCOC1` (stereo not drawn) [Example 87, 1-((tetrahydrofuran-3-yl)methyl)-2-((6-(trifluoromethoxy)-benzo[d]oxazol-2-yl)amino)-1H-benzo[d]imidazole-5-carboxylic acid], 6.8 µM.
As for `COCCNC(=O)c1ccc2c(c1)nc(Nc1nc3ccc(OC(F)(F)F)cc3o1)n2CC1CCOC1` (stereo not drawn) [Example 88, N-(2-methoxyethyl)-1-((tetrahydrofuran-3-yl)methyl)-2-((6-(trifluoromethoxy)benzo[d]oxazol-2-yl)amino)-1H-benzo[d]imidazole-5-carboxamide], the EC50 is 1.5 µM.
Same read-out and setting: as for `COCCNC(=O)c1ccc2c(c1)nc(Nc1nc3ccc(OC(F)(F)F)cc3o1)n2CCS(C)(=O)=O` [Example 90, N-(2-methoxyethyl)-1-(2-(methylsulfonyl)ethyl)-2-((6-(trifluoromethoxy)benzo[d]oxazol-2-yl)amino)-1H-benzo[d]imidazole-5-carboxamide], the figure is 4.8 µM.
As to `O=C(NCCO)c1ccc2c(c1)nc(Nc1nc3ccc(OC(F)(F)F)cc3o1)n2CC1(O)COC1` [Example 95, N-(2-hydroxyethyl)-1-((3-hydroxyoxetan-3-yl)methyl)-2-((6-(trifluoromethoxy)benzo[d]oxazol-2-yl)amino)-1H-benzo[d]imidazole-5-carboxamide], the EC50 came out at 1.6 µM.
The same measure, in the same setting: for `Cn1c(Nc2nc3ccc(Cl)cc3o2)nc2cc(C(=O)O)ccc21` [Example 96, 2-((6-chlorobenzo[d]oxazol-2-yl)amino)-1-methyl-1H-benzo[d]imidazole-5-carboxylic acid] the value was 2.8 µM; for `Cn1c(Nc2nc3ccc(OCC(F)(F)F)cc3o2)nc2cc(C(=O)O)ccc21` [Example 98, 1-methyl-2-((6-(2,2,2-trifluoroethoxy)benzo[d]oxazol-2-yl)amino)-1H-benzo[d]imidazole-5-carboxylic acid], 4.1 µM; for `Cn1c(Nc2nc3ccc(OCCO)cc3o2)nc2cc(C(=O)NCCN)ccc21` [Example 105, N-(2-aminoethyl)-2-((6-(2-hydroxyethoxy)benzo[d]oxazol-2-yl)amino)-1-methyl-1H-benzo[d]imidazole-5-carboxamide hydrochloride], 4.1 µM.
Same read-out and setting: as for `Cn1c(Nc2nc3cc(F)c(C(F)(F)F)cc3o2)nc2cc(C(=O)O)ccc21` [Example 107, 2-((5-fluoro-6-(trifluoromethyl)benzo[d]oxazol-2-yl)amino)-1-methyl-1H-benzo[d]imidazole-5-carboxylic acid], the figure is 4.5 µM; as for `Cn1c(Nc2nc3ccc(C4CC4)cc3o2)nc2cc(C(=O)O)ccc21` [Example 115, 2-((6-cyclopropylbenzo[d]oxazol-2-yl)amino)-1-methyl-1H-benzo[d]imidazole-5-carboxylic acid], 6.2 µM; as for `COCCNC(=O)c1ccc2c(c1)nc(Nc1nc3ccc(C4CC4)cc3o1)n2C` [Example 116, 2-((6-cyclopropylbenzo[d]oxazol-2-yl)amino)-N-(2-methoxyethyl)-1-methyl-1H-benzo[d]imidazole-5-carboxamide], 3 µM.
As to `Cn1c(Nc2nc3cc(C(=O)NCCOCCO)ccc3o2)nc2ccccc21` [Example 118, N-(2-(2-hydroxyethoxy)ethyl)-2-((1-methyl-1H-benzo[d]imidazol-2-yl)amino)benzo[d]oxazole-5-carboxamide], the EC50 was found to be 8 µM.
Turning to `Cn1c(Nc2nc3ccc(OC4CCOCC4)cc3o2)nc2cc(C(=O)NCCOCCO)ccc21` [Example 138, N-(2-(2-hydroxyethoxy)ethyl)-1-methyl-2-((6-((tetrahydro-2H-pyran-4-yl)oxy)benzo[d]oxazol-2-yl)amino)-1H-benzo[d]imidazole-5-carboxamide], the EC50 worked out at 2 µM.
`Cn1c(Nc2nc3ccccc3o2)nc2cc(C(O)C(F)(F)F)ccc21` (stereo not drawn) [Example 142, 1-(2-(benzo[d]oxazol-2-ylamino)-1-methyl-1H-benzo[d]imidazol-5-yl)-2,2,2-trifluoroethan-1-ol]: the EC50 is 3.3 µM.

Tested on in the next data set: not listed separately
In words: Kinetic solubility. It counts as physicochemical. The following applies: Dulbecco's phosphate buffer saline (DPBS), aqueous buffer, kinetic from dmso stock, DPBS pH 7.4, 25° C., 200 μM test compound. The method, then:
Example 144. Kinetic Solubility
10 μL of 10 mM DMSO stock solution were aliquotted to 490 μL of DMSO solution and separately 490 μL of Dulbecco's phosphate buffer saline, DPBS, pH 7.4 solution in 1.2 mL 96-well plates in duplicate. Final concentration was 200 μM of the test compound. Samples were incubated at 25° C. with shaking at 200 rpm for 16 h. Samples were centrifuged at 3500 rpm for 20 min at 25° C., and supernatant was submitted for HPLC analysis.
Kinetic solubility was measured using the following equation: […]
As a reminder, the solubility is the dissolved amount per volume that the medium holds. Compound `CC(=O)N1CCc2nc(Nc3nc4cc(C(=O)NCCOCCO)ccc4n3C)sc2C1` [Example 10, 2-((5-acetyl-4,5,6,7-tetrahydrothiazolo[5,4-c]pyridin-2-yl)amino)-N-(2-(2-hydroxyethoxy)ethyl)-1-methyl-1H-benzo[d]imidazole-5-carboxamide] showed a solubility at 16 h of 8.6 µM (≈ 3.94 µg/mL).
Same read-out and setting: as for `Cn1c(Nc2nc3ccccc3o2)nc2cc(C(=O)NCC(O)CO)ccc21` (stereo not drawn) [Example 24, 2-(benzo[d]oxazol-2-ylamino)-N-(2,3-dihydroxypropyl)-1-methyl-1H-benzo[d]imidazole-5-carboxamide], the figure is 12.4 µM (≈ 4.73 µg/mL); as for `Cn1c(Nc2nc3ccccc3o2)nc2cc(C(=O)NCCOCC(C)(C)O)ccc21` [Example 27, 2-(benzo[d]oxazol-2-ylamino)-N-(2-(2-hydroxy-2-methylpropoxy)ethyl)-1-methyl-1H-benzo[d]imidazole-5-carboxamide], 10.6 µM (≈ 4.49 µg/mL).
The same measure, in the same setting: for `Cn1c(Nc2nc3ccccc3o2)nc2cc(C(=O)NCCOCC(=O)O)ccc21` [Example 29, 2-(2-(2-(benzo[d]oxazol-2-ylamino)-1-methyl-1H-benzo[d]imidazole-5-carboxamido)ethoxy)acetic acid] the value was 19.3 µM (≈ 7.9 µg/mL).
The compound `Cn1c(Nc2nc3ccc(C(F)(F)F)cc3o2)nc2cc(C(=O)NCCN3CCCCC3)ccc21` [Example 37, 1-methyl-N-(2-(piperidin-1-yl)ethyl)-2-((6-(trifluoromethyl)benzo[d]oxazol-2-yl)amino)-1H-benzo[d]imidazole-5-carboxamide] displayed a solubility at 16 h of less than 2 µM.
Same read-out and setting: as for `Cn1cc(NC(=O)c2ccc3c(c2)nc(Nc2nc4ccc(OC(F)(F)F)cc4o2)n3C)cn1` [Example 50, 1-methyl-N-(1-methyl-1H-pyrazol-4-yl)-2-((6-(trifluoromethoxy)benzo[d]oxazol-2-yl)amino)-1H-benzo[d]imidazole-5-carboxamide], the figure is 4 µM (≈ 1.89 µg/mL).
Same read-out and setting: as for `Cn1c(Nc2nc3ccc(C(F)(F)F)nc3o2)nc2cc(C(=O)NCCO)ccc21` [Example 113, N-(2-hydroxyethyl)-1-methyl-2-((5-(trifluoromethyl)oxazolo[5,4-b]pyridin-2-yl)amino)-1H-benzo[d]imidazole-5-carboxamide], the figure is 9.1 µM (≈ 3.83 µg/mL).
Take `Cn1c(Nc2nc3nccnc3s2)nc2cc(C(=O)NCCOCCO)ccc21` [Example 114, N-(2-(2-hydroxyethoxy)ethyl)-1-methyl-2-(thiazolo[4,5-b]pyrazin-2-ylamino)-1H-benzo[d]imidazole-5-carboxamide]: the solubility at 16 h was determined as 12.2 µM (≈ 5.04 µg/mL).
